Measured values as given in paper PMC9785202, “Changes in Disposition of Ezetimibe and Its Active Metabolites Induced by Impaired Hepatic Function: The Influence of Enzyme and Transporter Activities” (Pharmaceutics, 2022).

Assays:
[1] = test system: OCT2; test: Uptake of EZE-Ph into OCT2-transfected HEK293 cells; format: in vitro ADME, human; settings: 10 μM EZE-Ph
Description: Human OATP1B1-, OATP1B3-, OATP2B1-, OAT1-, OAT3-, or OCT2-transfected HEK293 cells and vector-transfected control cells (mock) were constructed at HD Biosciences Co., Ltd. (Shanghai, China). The functions of these transporters were evaluated using relevant positive substrates and inhibitors. Estradiol-17β-glucuronide (5 μM, OATP1B1 and OATP1B3), estrone 3-sulfate sodium salt (E3S, 5 μM, OATP2B1), para-aminohippuric acid (PAH, 20 μM, OAT1), furosemide (5 μM, OAT3), and 1-methyl-4-phenyl pyridinium (MPP^+, 5 μM, OCT2) were used as substrates for the transporters. […] The cells (50,000 per well) were cultured in Dulbecco’s modified Eagle’s medium (containing 10% fetal bovine serum, 1% GlutaMAX-I, 1% penicillin G/streptomycin, and 1% nonessential amino acids) on poly-D-lysine-coated 96-well plates at 37 °C in an atmosphere of 5% CO2.
The cells were rinsed three times with HBSS (37 °C) and then equilibrated in HBSS for 10 min. […] The protein content was measured using a BCA protein assay kit. The concentrations of EZE and EZE-Ph were determined using LC-MS/MS.
The rates of substrate uptake were normalized using the protein contents of cell lysates. The net uptake via transporters was calculated by subtracting the uptake in vector-transfected HEK293 cells (or uptake into hepatocytes at 4 °C) from that in transporter-transfected HEK293 cells (or uptake into hepatocytes at 37 °C).

[2] = set-up: method as in PMID 10780982; settings: intraduodenal administration of EZE; cited from earlier work
[3] = target: T1, OATP1B1 (Homo sapiens, UniProt Q9Y6L6); test: Uptake of EZE-Ph into OATP1B1-transfected HEK293 cells; format: in vitro ADME
T1 construct: host or cells: HEK293
T1 sequence (Q9Y6L6 1-691): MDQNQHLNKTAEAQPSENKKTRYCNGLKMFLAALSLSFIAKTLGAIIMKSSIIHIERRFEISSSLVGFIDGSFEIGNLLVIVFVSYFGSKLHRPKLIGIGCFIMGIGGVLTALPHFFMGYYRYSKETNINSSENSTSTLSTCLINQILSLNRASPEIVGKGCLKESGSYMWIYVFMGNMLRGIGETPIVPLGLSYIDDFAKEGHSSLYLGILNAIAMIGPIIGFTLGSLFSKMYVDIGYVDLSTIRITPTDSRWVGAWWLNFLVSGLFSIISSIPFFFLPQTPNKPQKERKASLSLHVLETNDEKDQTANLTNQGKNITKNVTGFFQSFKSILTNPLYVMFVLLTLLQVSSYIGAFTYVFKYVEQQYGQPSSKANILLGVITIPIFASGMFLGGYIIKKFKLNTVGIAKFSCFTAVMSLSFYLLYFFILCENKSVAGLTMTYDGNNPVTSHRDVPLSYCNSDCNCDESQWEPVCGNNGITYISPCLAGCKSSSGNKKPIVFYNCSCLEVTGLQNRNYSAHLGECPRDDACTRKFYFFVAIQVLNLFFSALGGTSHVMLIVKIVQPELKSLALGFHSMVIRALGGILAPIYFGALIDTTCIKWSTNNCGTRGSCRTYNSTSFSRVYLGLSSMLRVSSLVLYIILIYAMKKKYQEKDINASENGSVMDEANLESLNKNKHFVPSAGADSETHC
Description: The kinetic parameters and the half inhibitory concentration (IC50) were calculated using GraphPad Prism. […] The intrinsic clearance (CLint) was calculated as CLint = Vmax/Km.

[4] = test system: liver slices; test: Uptake of EZE-Ph in liver slices of control and CCl4-induced rats; format: in vitro ADME, rat; settings: 10 μM EZE-Ph, 10 min
Description: Liver slices were prepared as previously described elsewhere. Rats were anesthetized and sacrificed via exsanguination from the abdominal aorta, and the livers were excised. Liver cylindrical cores of an 8 mm diameter were made before slicing. Liver slices with a thickness of 300 μm were obtained using a Krumdieck tissue slicer MD6000 (TSE systems, Chesterfield, MO) with ice-cold and carbogen-saturated Krebs–Henseleit buffer.
After 5 min of preincubation at 4 and 37 °C, the liver slices were transferred to 24-well plates containing 500 μL of buffer with 10 μM EZE-Ph for 10 min. After incubation, the liver slices were washed 3 times with ice-cold HBSS and dried on filter paper. Each liver slice was homogenized with 200 μL of purified water and the protein content was determined using a BCA protein assay kit. The concentration of EZE-Ph was determined using LC-MS/MS.

[5] = set-up: method as in PMID 11901097; settings: cited from earlier work

Row | Structure (SMILES) | uptake in transporter-transfected cells relative to mock-transfected cells [1] | EZE-Ph generated in the intestine [2] [%] | uptake in transporter-transfected cells relative to mock-transfected cells ([3]; 10 μM EZE-Ph, OATP1B1 HEK293) [times] | CLint ([3]; OATP1B1 HEK293, CLint = Vmax/Km) [μL/min/mg Protein] | Kinetic Model ([3]; OATP1B1 HEK293, uptake time 5 min) | EZE-Ph uptake in liver slices, 37 °C vs 4 °C [4] | EZE-Ph uptake in liver slices, control vs CCl4-induced rats [4] | share of the EZE-related material in human plasma [5]
1 | O=C(O)[C@H]1O[C@@H](Oc2ccc([C@@H]3[C@@H](CC[C@H](O)c4ccc(F)cc4)C(=O)N3c3ccc(F)cc3)cc2)[C@H](O)[C@@H](O)[C@@H]1O [EZE-Ph, ezetimibe phenoxy β-D-glucuronide] | less than twice | > 95 | 5.3 | 0.56 | Substrate inhibition | significantly greater at 37 °C than 4 °C | no significant difference | –
2 | O=C1[C@H](CC[C@H](O)c2ccc(F)cc2)[C@@H](c2ccc(O)cc2)N1c1ccc(F)cc1 [EZE, 1-(4-fluorophenyl)-3(R)-[3-(4-fluorophenyl)-3(S)-hydroxypropyl]-4(S)-(4-hydroxyphenyl)-2-azetidinone, reference compound] | – | – | – | – | – | – | – | 10–20%
